What was measured:
[1] = system: MCF-7 (estrogen receptor positive breast cancer cells); settings: previously published values; cited from earlier work
[2] = system: SkBr3 (Her2 overexpressing breast cancer cells); settings: previously published values; cited from earlier work
cancer cell lines = experiment: Anti-proliferative activity, statements covering several cancer cell lines; assay type: cell-based; settings: SkBr3 and MCF-7, 1 μM
Protocol: Upon completion of synthesis of library of compounds in Examples 23 and 24, the compounds were evaluated for anti-proliferative activity against SkBr3 (Her2 overexpressing breast cancer cells), MCF-7 (estrogen receptor positive breast cancer cells), HCT-116 (colon cancer cells characterized by wild-type p53), PL45 (pancreatic cancer cells), LNCaP (androgen sensitive prostate cancer cells) and PC-3 (androgen independent prostate cancer cells) cell lines. […] The monosubstituted benzamide variants improved activity.
(§1) Cells were maintained in a 1:1 mixture of Advanced DMEM/F12 (Gibco) supplemented with non-essential amino acids, L-glutamine (2 mM), streptomycin (500 ng/mL), penicillin (100 units/mL), and 10% FBS. Cells were grown to confluence in a humidified atmosphere (37° C., 5% CO2), seeded (2000/well, 100 μl) in 96-well plates, and allowed to attach overnight. Compound or GDA at varying concentrations in DMSO (1% DMSO final concentration) was added, and cells were returned to the incubator for 72 hours. At 72 hours, the number of viable cells was determined using an MTS/PMS cell proliferation kit (Promega) per the manufacturer's instructions. Cells incubated in 1% DMSO were used at 100% proliferation, and values were adjusted accordingly. IC50 values were calculated from separate experiments performed in triplicate using GraphPad Prism.
as §1, with “μg/mL),” for “ng/mL),”, “μL)” for “μl)”

primary cortical neurons = experiment: Toxicity of drug alone in neuronal cells (Live-Dead assay); assay type: cell-based
From the text: More specifically, primary cortical neurons were recovered from embryonic day 18 rat brains as described previously (Michaelis et al., Immunological Localization And Kinetic Characterization Of A Na+/Ca2+Exchanger In Neuronal And Nonneuronal Cells, Brain Res. 661 104-116 (1994)). Briefly, about 10 to 16 brains were removed from fetuses delivered by cesarean section, and the cortices dissected out. The neurons were isolated and suspended in DMEM/F12 supplemented with 10% FBS and plated on sterile dishes or cover slips coated with 10 μg/ml poly-D-lysine and 5 μg/ml mouse laminin. After 24 hours, the serum-containing medium was removed, and neurons were maintained in Neurobasal medium (Gibco) with 2% B-27 supplements (Gibco). Cells were maintained in culture at 37° C. in 5% CO2 and 97% humidity for 7 to 8 eight days in vitro (DIV) before use. […] Stock solutions of Aβ were prepared in sterile water at a concentration of 1.3 mM and stored at −20° C. Aliquots of the stock solutions were diluted to 1 mM in sterile 50 mM Tris-HCl, pH 7.4, and incubated at 37° C. for 24 hours to promote oligomerization of the peptides prior to treatment of the neurons. The effects of KU-1/A4, GA, Aβ, or the indicated combinations on neuronal viability were determined by monitoring cell survival using the Live-Dead assay as previously described. […] Digital images from 6 fields per dish were captured, and the number of viable (green) and dead (red) cells counted. All experiments were conducted with duplicate dishes from at least two neuronal preparations for each treatment, with about 1,000 cells analyzed/treatment condition. The data are expressed as the fraction of viable cells calculated from the total number of neurons counted under each treatment condition. The significance of differences between cultures exposed to various treatment conditions was determined using Student's t-test.

[3] = system: Hsp90-dependent client proteins ErbB2 (Her2) and p53 in SKBr3 breast cancer cells; settings: previous studies; cited from earlier work
[4] = system: Hsp90 client protein Her-2 in Skbr3 breast cancer cells; experiment: Degradation of Her-2, Western blot in Skbr3 cells; assay type: cell-based; settings: Homo sapiens, SK-BR-3, read-out: IC50 (concentration producing 50% degradation of Her-2), 24 hours, normalized against actin
Protocol: After incubation, the cells were harvested, lysed, and equal amounts of the protein lysates loaded into SDS wells. After electrophoresis, the gel was probed with Her-2 and actin (control) antibodies.

SMILES | IC50 [1] | IC50 [2] | cytotoxicity (cancer cell lines) | cytotoxicity in neuronal cells (primary cortical neurons; 10 μM, 24 hours) | cytotoxicity in neuronal cells (primary cortical neurons; lower concentrations, 72 hours) | concentration inducing degradation of ErbB2 [3] | IC50 [4]
COC1=C2C[C@@H](C)C[C@H](OC)[C@H](O)[C@@H](C)/C=C(\C)[C@H](OC(N)=O)[C@@H](OC)/C=C\C=C(/C)C(=O)NC(=CC1=O)C2=O [GA, reference compound] | 133 nM | 18 nM | almost complete cytotoxicity | significant cytotoxicity | substantial cytotoxicity | – | –
CO[C@@H]1[C@@H](OC(N)=O)[C@@H](O)[C@H](Oc2ccc3c(O)c(NC(=O)c4ccc(O)c(CC=C(C)C)c4)c(=O)oc3c2C)OC1(C)C [novobiocin, reference compound] | – | – | – | – | – | about 700 μM | 700000 nM
